Measured values published in PubChem BioAssay AID330 (DTP/NCI, 2004).
Several values for one entry are separate records, joined by “and”; a condition that tells them apart may be missing. Equal values may be shown once. Inconclusive results and toxic doses are left out. Rule for the calls: active = survival T/C of 150% or more; inactive = T/C below 125% in these data.

System: P388 leukemia ip, CD2F1 mice, survival T/C
Assay: NCI In Vivo Anticancer Drug Screen. Data for tumor model P388 Leukemia (intraperitoneal) in CD2F1 (CDF1) mice
Settings: endpoint: median survival time, higher = longer survival
How it was run: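 Mice carrying the transplanted tumor received test compound or vehicle. Survival was recorded in each group, and the value is the treated-group measurement divided by that of the vehicle-treated control group.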

[1] = dose: 50.0 mg/kg/injection, schedule: Q01DX005 (ip), vehicle: saline with Tween-80
[2] = dose: 100.0 mg/kg/injection, schedule: Q01DX005 (ip), vehicle: saline with Tween-80
[3] = dose: 200.0 mg/kg/injection, schedule: Q01DX005 (ip), vehicle: saline with Tween-80
[4] = dose: 50.0 mg/kg/injection, schedule: Q01DX009 (ip), vehicle: Klucel (hydroxypropylcellulose) (HPC)
[5] = dose: 100.0 mg/kg/injection, schedule: Q01DX009 (ip), vehicle: Klucel (hydroxypropylcellulose) (HPC)
[6] = dose: 200.0 mg/kg/injection, schedule: Q01DX009 (ip), vehicle: Klucel (hydroxypropylcellulose) (HPC)
[7] = dose: 100.0 mg/kg/injection, schedule: Q04DX002 (ip), vehicle: saline with Tween-80

Measured: T/C

COC1=CC(C)C2CC3OC(O)CC4C(C)=C(OC)C(=O)C(C2(C)C1=O)C34C (configuration not stated)
inactive: dose: 60.0 mg/kg/injection, schedule: Q01DX005 (ip), vehicle: Klucel (hydroxypropylcellulose) (HPC) 94 % of control | dose: 120.0 mg/kg/injection, schedule: Q01DX005 (ip), vehicle: Klucel (hydroxypropylcellulose) (HPC) 94 % of control | dose: 240.0 mg/kg/injection, schedule: Q01DX005 (ip), vehicle: Klucel (hydroxypropylcellulose) (HPC) 89 % of control

CC(C)(C)OC(=O)NC(CCC(=O)O)(Cc1ccccc1)C(=O)NC(CCC(=O)O)(Cc1ccccc1)C(=O)OCc1ccccc1 (configuration not stated)
inactive: dose: 6.25 mg/kg/injection, schedule: Q01DX005 (ip), vehicle: saline with Tween-80 98 % of control | dose: 12.5 mg/kg/injection, schedule: Q01DX005 (ip), vehicle: saline with Tween-80 105 % of control | dose: 25.0 mg/kg/injection, schedule: Q01DX005 (ip), vehicle: saline with Tween-80 88 % of control

CCCCCCCC/C=C/CCCCCCCC(=O)NCCCN (tested in a mixture with another compound)
inactive: dose: 25.0 mg/kg/injection, schedule: Q04DX002 (ip), vehicle: saline 104 % of control | dose: 50.0 mg/kg/injection, schedule: Q04DX002 (ip), vehicle: saline 103 % of control

CCCCOP(O)(=S)OCCCC.[Ho]
inactive: dose: 66.0 mg/kg/injection, schedule: Q01DX001 (ip), vehicle: saline with Tween-80 100 % of control | dose: 100.0 mg/kg/injection, schedule: Q01DX001 (ip), vehicle: saline with Tween-80 98 % of control | dose: 150.0 mg/kg/injection, schedule: Q01DX001 (ip), vehicle: saline with Tween-80 98 % of control | dose: 200.0 mg/kg/injection, schedule: Q01DX001 (ip), vehicle: saline with Tween-80 90 % of control | dose: 400.0 mg/kg/injection, schedule: Q01DX001 (ip), vehicle: saline with Tween-80 90 % of control

COc1cc2c[n+]3c(c(C)c2cc1OC)-c1cc2c(cc1CC3)OCO2
inactive: dose: 6.25 mg/kg/injection, schedule: Q04DX003 (ip), vehicle: distilled water + Tween-80 106 % of control | dose: 12.5 mg/kg/injection, schedule: Q04DX003 (ip), vehicle: distilled water + Tween-80 113 % of control | dose: 25.0 mg/kg/injection, schedule: Q04DX003 (ip), vehicle: distilled water + Tween-80 116 % of control | dose: 50.0 mg/kg/injection, schedule: Q04DX003 (ip), vehicle: distilled water + Tween-80 108 % of control

C#CC1OCCCO1
inactive: dose: 60.0 mg/kg/injection, schedule: Q01DX005 (ip), vehicle: saline 100 % of control | dose: 120.0 mg/kg/injection, schedule: Q01DX005 (ip), vehicle: saline 106 % of control

CN1CCCC1c1ccc[n+](C)c1 (configuration not stated)
inactive: dose: 50.0 mg/kg/injection, schedule: Q01DX009 (ip), vehicle: saline 110 % of control and 108 % of control | dose: 100.0 mg/kg/injection, schedule: Q01DX009 (ip), vehicle: saline 110 % of control and 105 % of control | dose: 200.0 mg/kg/injection, schedule: Q01DX009 (ip), vehicle: saline 115 % of control and 113 % of control

Clc1ccccc1OCC1CO1 (configuration not stated)
inactive: dose: 100.0 mg/kg/injection, schedule: Q01DX009 (ip), vehicle: saline with Tween-80 100 % of control | dose: 200.0 mg/kg/injection, schedule: Q01DX009 (ip), vehicle: saline with Tween-80 109 % of control | dose: 400.0 mg/kg/injection, schedule: Q01DX009 (ip), vehicle: saline with Tween-80 109 % of control

CCC(=O)N1C(=O)C(C)C23c4ccccc4C(=O)N2CCCN13 (configuration not stated)
inactive: [1] 97 % of control | [2] 96 % of control | [3] 96 % of control

CCCCCCCCCCCCCCCCS(=O)(=O)N/N=C(/C)N(C)c1ccc(OC)cc1
inactive: [4] 107 % of control | [5] 107 % of control | [6] 111 % of control

O=S(=O)(Nc1ccc(C(F)(F)F)cc1)c1ccc(F)cc1
inactive: dose: 60.0 mg/kg/injection, schedule: Q01DX005 (ip), vehicle: saline with Tween-80 100 % of control | dose: 120.0 mg/kg/injection, schedule: Q01DX005 (ip), vehicle: saline with Tween-80 100 % of control | dose: 240.0 mg/kg/injection, schedule: Q01DX005 (ip), vehicle: saline with Tween-80 104 % of control

CCn1c(O)c(N=NC(=S)SCc2ccccc2)c2ccccc21
inactive: dose: 1.56 mg/kg/injection, schedule: Q01DX009 (ip), vehicle: suspension in saline 97 % of control | dose: 3.12 mg/kg/injection, schedule: Q01DX009 (ip), vehicle: suspension in saline 101 % of control | dose: 6.25 mg/kg/injection, schedule: Q01DX009 (ip), vehicle: suspension in saline 87 % of control and 97 % of control | dose: 25.0 mg/kg/injection, schedule: Q01DX009 (ip), vehicle: saline 94 % of control

Nc1ccc(C(=O)NO)cc1
inactive: dose: 25.0 mg/kg/injection, schedule: Q01DX009 (ip), vehicle: suspension in saline 99 % of control | dose: 50.0 mg/kg/injection, schedule: Q01DX009 (ip), vehicle: suspension in saline 99 % of control | dose: 100.0 mg/kg/injection, schedule: Q01DX009 (ip), vehicle: suspension in saline 96 % of control | dose: 200.0 mg/kg/injection, schedule: Q01DX009 (ip), vehicle: suspension in saline 109 % of control

CCCCNC1=CC(=O)c2ccccc2C1=O
inactive: dose: 50.0 mg/kg/injection, schedule: Q04DX003 (ip), vehicle: saline with Tween-80 99 % of control | dose: 100.0 mg/kg/injection, schedule: Q04DX003 (ip), vehicle: saline with Tween-80 92 % of control | dose: 200.0 mg/kg/injection, schedule: Q04DX003 (ip), vehicle: saline with Tween-80 88 % of control

CSc1nc(C#N)c(/N=C\N(C)C)s1
inactive: dose: 50.0 mg/kg/injection, schedule: Q01DX005 (ip), vehicle: Klucel (hydroxypropylcellulose) (HPC) 100 % of control | dose: 100.0 mg/kg/injection, schedule: Q01DX005 (ip), vehicle: Klucel (hydroxypropylcellulose) (HPC) 99 % of control | dose: 200.0 mg/kg/injection, schedule: Q01DX005 (ip), vehicle: Klucel (hydroxypropylcellulose) (HPC) 100 % of control

O=C(Nc1ccc(NC2=NCCN2)cc1)c1cc(Cl)cc(C(=O)Nc2ccc(NC3=NCCN3)cc2)c1
inactive: dose: 12.5 mg/kg/injection, schedule: Q01DX005 (ip), vehicle: Klucel (hydroxypropylcellulose) (HPC) 98 % of control | dose: 25.0 mg/kg/injection, schedule: Q01DX005 (ip), vehicle: Klucel (hydroxypropylcellulose) (HPC) 102 % of control

NC(CSCNc1ncnc2c1ncn2C1OC(CO)C(O)C1O)C(=O)O (configuration not stated)
inactive: [7] 105 % of control | dose: 200.0 mg/kg/injection, schedule: Q04DX002 (ip), vehicle: saline with Tween-80 105 % of control | dose: 400.0 mg/kg/injection, schedule: Q04DX002 (ip), vehicle: saline with Tween-80 102 % of control

CN(C)C12CCCCCCC1S(=O)(=O)C2 (configuration not stated)
inactive: dose: 25.0 mg/kg/injection, schedule: Q04DX002 (ip), vehicle: saline with Tween-80 98 % of control | dose: 50.0 mg/kg/injection, schedule: Q04DX002 (ip), vehicle: saline with Tween-80 98 % of control | [7] 102 % of control and 96 % of control

Cn1c2ccccc2c(=O)c2cc(NC(=O)/C=C/C(=O)Nc3ccc4c(c3)c(=O)c3ccccc3n4C)ccc21
inactive: [1] 102 % of control | [2] 105 % of control | [3] 106 % of control

CNCCCN1c2ccccc2CCc2ccccc21
inactive: [1] 103 % of control

CC1=NN(c2ccc(S(=O)(=O)O)cc2)C(=O)C1N=Nc1ccc(C)c(S(=O)(=O)Nc2ccccc2)c1 (configuration not stated)
inactive: [4] 101 % of control | [5] 99 % of control | [6] 101 % of control

COC(=O)CC1(C(=O)OC)c2ccc3ccccc3c2N2CCCC21 (configuration not stated)
inactive: dose: 100.0 mg/kg/injection, schedule: Q01DX001 (ip), vehicle: saline 102 % of control | dose: 200.0 mg/kg/injection, schedule: Q01DX001 (ip), vehicle: saline 100 % of control | dose: 400.0 mg/kg/injection, schedule: Q01DX001 (ip), vehicle: saline 100 % of control

O=C(CC1=NC2NN(c3ccccc3)C(=O)C2=C1CC(=O)C(c1ccccc1)c1ccccc1)C(c1ccccc1)c1ccccc1 (configuration not stated)
inactive: dose: 60.0 mg/kg/injection, schedule: Q01DX005 (ip), vehicle: suspension in saline 98 % of control | dose: 120.0 mg/kg/injection, schedule: Q01DX005 (ip), vehicle: suspension in saline 102 % of control | dose: 240.0 mg/kg/injection, schedule: Q01DX005 (ip), vehicle: suspension in saline 100 % of control

N/C(C/C(=N/OC(=O)c1ccccc1)OC(=O)c1ccccc1)=N/O
inactive: dose: 100.0 mg/kg/injection, schedule: Q04DX003 (ip), vehicle: saline 101 % of control | dose: 200.0 mg/kg/injection, schedule: Q04DX003 (ip), vehicle: saline 107 % of control | dose: 400.0 mg/kg/injection, schedule: Q04DX003 (ip), vehicle: saline 99 % of control
